For this test, the system named is C57BL/6 mice. Description: Open-field test. It is filed as in vivo, mouse. As to conditions: 50 mg/kg. The procedure:
The OFT was performed as described ([Chakraborti et al., 2021]). With the adaptation duration of the test being 1 h for each mouse, briefly, the mice were placed in a square box (40 cm × 40 cm) and allowed to freely explore. The center square portion of the maze was defined as the “open area.” Video tracking using EthoVision 16 software was used to track animal movement throughout the box and stereotypic and locomotive behaviors such as hopping, sniffing, and rearing. Total distance traveled, entries into the center of the maze, and duration in the center were tracked and analyzed in EthoVision.
To establish a functional effect of pharmacological Cdk5 inhibition in the brain, we tested mouse performance in two behavioral paradigms previously shown to be altered in Cdk5 knockout mice: the open-field maze and the tail suspension test ([Plattner et al., 2015]). The open-field maze was used to measure locomotion and anxiety-like behavior ([Cacace et al., 2011]; [Seibenhener and Wooten, 2015]). Mice were injected with either vehicle or 50 mg/kg of 25–106 and allowed to freely explore an open-field maze for 1 h with locomotor activity being tracked (Figure 7).

In the case of `COc1cc(CC(=O)Nc2cc(C3CCC3)[nH]n2)cc(OC)c1OC` [25–106, N-(5-cyclobutyl-1H-pyrazol-3-yl)-2-(3,4,5-trimethoxyphenyl)acetamide], where the note is “1 h after injection, 1 h test”, the “duration of time spent in the open portion of the maze vs. vehicle” value is “longer duration of time” and the “entries into the open portion of the maze vs. vehicle” value was “increased number of entries”. In addition, under “open-field testing”, the “hopping bouts vs. vehicle” value is listed as “increased hopping bouts”, the “rearing behaviors vs. vehicle” value is listed as “increased rearing behaviors” and the “time sniffing vs. vehicle” value is “increased time sniffing”.
